Reference: ChEMBL document CHEMBL5233247, “Recent advances in DNA gyrase-targeted antimicrobial agents” (Eur J Med Chem, 2020)
pIC50: −log10 of the molar value. Values after ≈ are worked out from the molar mass of the structure shown.

Tests used:
DNA gyrase [1] = target: DNA gyrase (Escherichia coli, UniProt P0AES4+P0AES6); assay: Inhibition of Escherichia coli DNA gyrase; format: protein-complex assay
Escherichia coli [2] = assay: Antibacterial activity against Escherichia coli assessed as zone of inhibition; format: functional
Escherichia coli [3] = assay: Antimicrobial activity against Escherichia coli MSCL 332 assessed as inhibition of bacterial growth incubated for 24 hrs by standardized broth dilution method; format: functional
Staphylococcus aureus [4] = assay: Antimicrobial activity against Staphylococcus aureus MSCL 334 assessed as inhibition of bacterial growth incubated for 24 hrs by standardized broth dilution method; format: functional
Bacillus subtilis [5] = assay: Antimicrobial activity against Bacillus subtilis assessed as inhibition of bacterial growth incubated for 24 hrs by standardized broth dilution method; format: functional
[6] = system: Mycobacterium tuberculosis; assay: Anti-tubercular activity against Mycobacterium tuberculosis H37Rv strain; format: functional
[7] = system: Mycobacterium tuberculosis; assay: Antimycobacterial activity against Mycobacterium tuberculosis incubated for 7 days by MABA assay; format: functional; conditions: 168 h, time 7 day
[8] = target: DNA gyrase subunit A/DNA gyrase subunit B (Mycobacterium tuberculosis (strain ATCC 25618 / H37Rv), UniProt P9WG45+P9WG47); assay: Inhibition of Mycobacterium tuberculosis (MTB) DNA gyrase using pBR322 DNA by supercoiling assay; format: protein-complex assay
[9] = system: Mycobacterium tuberculosis; assay: Antitubercular activity against Mycobacterium tuberculosis H37Rv MTCC-200; format: functional
Staphylococcus aureus [10] = assay: Antibacterial activity against methicillin-sensitive Staphylococcus aureus; format: functional, organism-based
Staphylococcus aureus [11] = assay: Antibacterial activity against methicillin-resistant Staphylococcus aureus; format: functional, organism-based
Enterococcus faecalis [12] = assay: Antimicrobial activity against Enterococcus faecalis; format: functional
Mycolicibacterium phlei = assay: Antibacterial activity against Mycobacterium phlei DSM 750 by microdilution assay; format: functional
Bacillus subtilis [13] = assay: Antibacterial activity against Bacillus subtilis DSM 10 by microdilution assay; format: functional
Escherichia coli [14] = assay: Antibacterial activity against Escherichia coli DSM 1116 by microdilution assay; format: functional
Pseudomonas aeruginosa [15] = assay: Antimicrobial activity against Pseudomonas aeruginosa ATCC 27853 incubated for 18 to 24 hrs by double micro-dilution method; format: functional; conditions: time 18-24 hrs
Klebsiella pneumoniae [16] = assay: Antimicrobial activity against Klebsiella pneumoniae ATCC 13883 incubated for 18 to 24 hrs by double micro-dilution method; format: functional; conditions: time 18-24 hrs
[17] = system: Acinetobacter haemolyticus; assay: Antimicrobial activity against Acinetobacter haemolyticus ATCC 19002 incubated for 18 to 24 hrs by double micro-dilution method; format: functional; conditions: time 18-24 hrs
Enterococcus faecalis [18] = assay: Antimicrobial activity against Enterococcus faecalis ATCC 29212 incubated for 18 to 24 hrs by double micro-dilution method; format: functional; conditions: time 18-24 hrs
Staphylococcus aureus [19] = assay: Antimicrobial activity against Staphylococcus aureus ATCC 25923 incubated for 18 to 24 hrs by double micro-dilution method; format: functional; conditions: time 18-24 hrs
DNA gyrase [20] = target: DNA gyrase (Staphylococcus aureus, UniProt P0A0K8+P20831); assay: Inhibition of Staphylococcus aureus DNA gyrase; format: protein-complex assay
Bacillus subtilis [21] = assay: Antibacterial activity against Bacillus subtilis; format: functional
Staphylococcus aureus [22] = assay: Antibacterial activity against Staphylococcus aureus; format: functional
Bacillus cereus = assay: Antibacterial activity against Bacillus cereus; format: functional
[23] = system: Mycolicibacterium smegmatis; assay: Antibacterial activity against Mycobacterium smegmatis; format: functional
Pseudomonas aeruginosa [24] = assay: Antibacterial activity against Pseudomonas aeruginosa; format: functional
Klebsiella pneumoniae [25] = assay: Antibacterial activity against Klebsiella pneumoniae; format: functional
Escherichia coli [26] = assay: Antibacterial activity against Escherichia coli; format: functional

Sequence of DNA gyrase subunit A/DNA gyrase subunit B (P9WG45 whole entry): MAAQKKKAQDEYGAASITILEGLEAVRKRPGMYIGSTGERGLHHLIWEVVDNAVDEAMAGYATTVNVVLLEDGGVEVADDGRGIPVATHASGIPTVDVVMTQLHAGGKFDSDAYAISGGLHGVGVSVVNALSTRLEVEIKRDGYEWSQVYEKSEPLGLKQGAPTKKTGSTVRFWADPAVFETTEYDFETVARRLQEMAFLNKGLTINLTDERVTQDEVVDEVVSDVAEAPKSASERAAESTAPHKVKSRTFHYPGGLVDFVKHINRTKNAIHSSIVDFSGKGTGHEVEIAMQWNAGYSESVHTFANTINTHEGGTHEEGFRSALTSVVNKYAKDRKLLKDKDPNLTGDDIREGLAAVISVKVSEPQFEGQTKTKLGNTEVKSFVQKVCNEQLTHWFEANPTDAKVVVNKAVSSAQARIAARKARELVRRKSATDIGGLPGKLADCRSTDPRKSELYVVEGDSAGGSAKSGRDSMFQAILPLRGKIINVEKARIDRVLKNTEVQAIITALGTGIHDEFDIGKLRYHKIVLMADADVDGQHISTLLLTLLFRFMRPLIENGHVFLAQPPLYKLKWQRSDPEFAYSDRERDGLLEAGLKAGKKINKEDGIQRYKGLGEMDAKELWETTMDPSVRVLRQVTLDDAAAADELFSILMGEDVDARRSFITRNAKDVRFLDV
Sequence of DNA gyrase subunit A/DNA gyrase subunit B (P9WG47 whole entry): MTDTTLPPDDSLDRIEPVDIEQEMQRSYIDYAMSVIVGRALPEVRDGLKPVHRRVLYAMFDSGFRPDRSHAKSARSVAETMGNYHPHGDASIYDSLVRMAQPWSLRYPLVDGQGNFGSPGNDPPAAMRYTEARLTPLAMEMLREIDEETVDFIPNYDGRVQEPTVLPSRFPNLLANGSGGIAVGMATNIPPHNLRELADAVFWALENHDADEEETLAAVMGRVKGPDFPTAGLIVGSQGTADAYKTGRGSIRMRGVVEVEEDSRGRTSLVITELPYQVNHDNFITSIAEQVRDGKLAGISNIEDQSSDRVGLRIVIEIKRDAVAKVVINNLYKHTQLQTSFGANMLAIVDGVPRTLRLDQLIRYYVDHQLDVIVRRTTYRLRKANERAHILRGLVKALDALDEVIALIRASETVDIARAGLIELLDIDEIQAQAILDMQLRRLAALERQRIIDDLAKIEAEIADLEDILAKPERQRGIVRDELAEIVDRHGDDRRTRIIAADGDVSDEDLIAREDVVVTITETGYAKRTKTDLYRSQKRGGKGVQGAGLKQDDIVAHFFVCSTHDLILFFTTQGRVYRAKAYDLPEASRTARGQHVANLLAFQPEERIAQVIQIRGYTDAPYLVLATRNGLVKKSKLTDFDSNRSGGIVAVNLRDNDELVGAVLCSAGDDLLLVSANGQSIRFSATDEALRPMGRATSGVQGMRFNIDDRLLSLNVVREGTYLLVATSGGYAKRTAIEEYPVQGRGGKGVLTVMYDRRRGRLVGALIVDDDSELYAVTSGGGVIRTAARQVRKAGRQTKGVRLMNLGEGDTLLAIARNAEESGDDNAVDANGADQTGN
Sequence of DNA gyrase (Staphylococcus aureus, UniProt P0A0K8+P20831) (P0A0K8 whole entry): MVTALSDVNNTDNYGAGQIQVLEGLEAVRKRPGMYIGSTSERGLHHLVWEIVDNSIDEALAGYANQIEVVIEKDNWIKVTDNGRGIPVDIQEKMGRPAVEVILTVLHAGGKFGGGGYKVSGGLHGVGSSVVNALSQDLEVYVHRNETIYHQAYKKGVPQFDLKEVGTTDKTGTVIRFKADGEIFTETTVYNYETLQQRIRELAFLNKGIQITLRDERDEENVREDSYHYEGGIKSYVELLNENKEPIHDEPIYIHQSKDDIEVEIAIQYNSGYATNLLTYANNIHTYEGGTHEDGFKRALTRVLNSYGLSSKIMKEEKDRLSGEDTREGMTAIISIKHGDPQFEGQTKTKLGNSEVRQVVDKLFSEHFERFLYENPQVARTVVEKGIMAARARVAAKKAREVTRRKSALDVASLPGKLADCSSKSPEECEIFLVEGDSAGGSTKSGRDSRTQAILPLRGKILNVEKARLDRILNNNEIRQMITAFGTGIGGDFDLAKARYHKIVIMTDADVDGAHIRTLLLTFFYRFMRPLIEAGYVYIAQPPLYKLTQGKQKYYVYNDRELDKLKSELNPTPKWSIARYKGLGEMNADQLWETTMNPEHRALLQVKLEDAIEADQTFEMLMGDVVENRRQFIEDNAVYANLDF
Sequence of DNA gyrase (Staphylococcus aureus, UniProt P0A0K8+P20831) (P20831 whole entry): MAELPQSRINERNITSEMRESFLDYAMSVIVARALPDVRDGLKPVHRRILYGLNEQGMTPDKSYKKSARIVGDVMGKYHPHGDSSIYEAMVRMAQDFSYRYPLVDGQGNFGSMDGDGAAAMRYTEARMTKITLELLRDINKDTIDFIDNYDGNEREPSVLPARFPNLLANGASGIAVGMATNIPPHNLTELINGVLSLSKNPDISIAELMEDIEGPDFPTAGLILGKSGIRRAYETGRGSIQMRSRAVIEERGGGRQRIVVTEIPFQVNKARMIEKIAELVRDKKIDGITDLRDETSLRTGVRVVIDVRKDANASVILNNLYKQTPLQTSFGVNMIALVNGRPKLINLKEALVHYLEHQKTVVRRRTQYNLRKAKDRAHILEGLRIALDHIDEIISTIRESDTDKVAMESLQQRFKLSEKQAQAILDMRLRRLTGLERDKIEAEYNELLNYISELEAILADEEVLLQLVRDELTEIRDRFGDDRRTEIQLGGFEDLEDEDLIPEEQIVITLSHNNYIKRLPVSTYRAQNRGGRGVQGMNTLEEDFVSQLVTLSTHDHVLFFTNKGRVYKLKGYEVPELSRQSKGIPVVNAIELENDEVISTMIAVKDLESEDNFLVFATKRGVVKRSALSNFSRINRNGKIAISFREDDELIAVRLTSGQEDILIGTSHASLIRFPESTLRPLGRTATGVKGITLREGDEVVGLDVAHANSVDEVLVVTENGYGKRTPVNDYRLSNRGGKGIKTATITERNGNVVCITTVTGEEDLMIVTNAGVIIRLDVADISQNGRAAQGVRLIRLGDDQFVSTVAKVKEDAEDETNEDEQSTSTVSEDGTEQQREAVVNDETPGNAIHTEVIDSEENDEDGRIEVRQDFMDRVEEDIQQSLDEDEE

With `CCn1cc(-c2nc(/N=C/c3ccc(Br)cc3)n[nH]2)c(=O)c2cc(Br)c(C)nc21` the pIC50 (DNA gyrase [1]) was 5.47 and the “inhibition zone (IZ)” value (Escherichia coli [2]) was 23 mm.

Work on `CCCCCCCOCC[N+]1(C)CCCc2ccccc21.[I-]` (centres undefined) yielded an MIC (Escherichia coli [3]) of 128 µg/mL, an MIC (Staphylococcus aureus [4]) of 1 µg/mL and an MIC (Bacillus subtilis [5]) of 2 µg/mL.

`NC(=O)c1cnccn1` [PYRAZINAMIDE] showed an MIC [6] of 3.12 µM (≈ 0.384 µg/mL).

`O=c1nc(N2CCN(C(=S)Nc3ccc(Cl)cc3)CC2)sc2ccc([N+](=O)[O-])cc12` showed an MIC [7] of 2.83 µM (≈ 1.31 µg/mL) and a pIC50 [8] of 6.09.

Work on `COc1cc(/C=N/Nc2nc(-c3ccc(Br)cc3)cs2)ccc1Oc1ccnc2cc(Cl)ccc12` yielded an MIC [6] of 3.12 µM (≈ 1.77 µg/mL).

`O=C1Nc2ccccc2/C1=C/c1ccc(OC(=O)c2ccccc2)cc1` was tested, and the MIC [9] was 73 µg/mL (≈ 214 µM).

For `CCNC(=O)Nc1nc2ccc(NC(=O)Cc3csc(NC(=O)OC(C)(C)C)n3)cc2s1`, the pIC50 (DNA gyrase [1]) was 5.41.

In the case of `CCn1cc(C(=O)O)c(=O)c2ccc(C)nc21` [NALIDIXIC ACID], the IC50 (Staphylococcus aureus [10]) was 47 µg/mL (≈ 202 µM) and the IC50 (Staphylococcus aureus [11]) was 47 µg/mL (≈ 202 µM).

For `O=C1COc2ccc(CNC3CCN(CCn4c(=O)c5nocc5c5ncccc54)CC3)nc2N1`, the pIC50 (DNA gyrase [1]) was 6.35.

Work on `CCCCCCCOCC[N+]1(C)CCc2ccccc2C1.[I-]` (centres undefined) yielded an MIC (Escherichia coli [3]) of 128 µg/mL, an MIC (Staphylococcus aureus [4]) of 8 µg/mL and an MIC (Bacillus subtilis [5]) of 128 µg/mL.

Work on `CC(C)COc1cc(C(=O)NCC(=O)O)ccc1NC(=O)c1cc(Cl)c(Cl)[nH]1` yielded a pIC50 (DNA gyrase [1]) of 4.33 and an MIC (Enterococcus faecalis [12]) of 12.5 µM (≈ 5.35 µg/mL).

Work on `COC(=O)CNC(=O)c1ccc(NC(=O)c2cc(Cl)c(Cl)[nH]2)c(OCC(C)C)c1` yielded a pIC50 (DNA gyrase [1]) of 5.64.

`Cc1ccc(NC(=S)N2CCN(c3nc(=O)c4cc([N+](=O)[O-])ccc4s3)CC2)cc1` was tested, and the MIC [7] was 1.82 µM (≈ 0.804 µg/mL) and the pIC50 [8] was 6.11.

Work on `O=C1COc2ccc(CNC3CCN(CCn4c(=O)c5ncoc5c5ccc(F)cc54)CC3)nc2N1` yielded a pIC50 (DNA gyrase [1]) of 6.37.

Compound `O=C(O)C(=O)Nc1ccc(NC(=O)c2cc(Br)c(Br)[nH]2)cc1` has a pIC50 (DNA gyrase [1]) of 6.74.

With `COc1c(NC(=O)c2ccc(NC(=O)[C@H](CC#N)NC(=O)c3ccc(NC(=O)/C(C)=C/c4ccc(O)cc4)cc3)c(OC)c2O)ccc(C(=O)O)c1O` the MIC (Mycolicibacterium phlei) was 2 µM (≈ 1.45 µg/mL) and the MIC (Bacillus subtilis [13]) was 0.062 µM (≈ 0.0449 µg/mL).

`COc1c(NC(=O)c2ccc(NC(=O)C(C)(C)NC(=O)c3ccc(NC(=O)/C(C)=C/c4ccc(O)cc4)cc3)c(OC)c2O)ccc(C(=O)O)c1O` gave an MIC (Mycolicibacterium phlei) of 2 µM (≈ 1.43 µg/mL), an MIC (Bacillus subtilis [13]) of 0.5 µM (≈ 0.356 µg/mL) and an MIC (Escherichia coli [14]) of 0.25 µM (≈ 0.178 µg/mL). It also gave an MIC (Escherichia coli [14]; Escherichia coli, DSM 1116, read-out: MIC) of 0.5 µM (≈ 0.356 µg/mL).

`O=C1COc2ccc(CNC3CCN(CCn4c(=O)c5nocc5c5ccc(F)cc54)CC3)nc2N1` showed a pIC50 (DNA gyrase [1]) of 6.37.

Work on `O=C(O)c1cn(C2CC2)c2cc(N3CCN(Cn4nc(CN5CCN(c6ccccc6)CC5)n(Cc5ccccc5)c4=O)CC3)c(F)cc2c1=O` yielded an MIC (Pseudomonas aeruginosa [15]) of 0.125 µg/mL (≈ 0.18 µM), an MIC (Klebsiella pneumoniae [16]) of 0.125 µg/mL (≈ 0.18 µM) and an MIC [17] of 0.125 µg/mL (≈ 0.18 µM). It also gave an MIC (Enterococcus faecalis [18]) of 8 µg/mL (≈ 11.5 µM), a pIC50 (DNA gyrase [1]) of 6.12 and an MIC (Staphylococcus aureus [19]) of 8 µg/mL (≈ 11.5 µM).

Compound `O=C(O)CCC(=O)Nc1ccc(NC(=O)c2ccco2)cc1` has a pIC50 (DNA gyrase [20]) of 4.89.

`CCn1cc(-c2nc(NC(=O)c3ccccc3)n[nH]2)c(=O)c2ccc(C)nc21` gave an MIC (Bacillus subtilis [21]) of 3.68 µM (≈ 1.38 µg/mL) and a pIC50 (DNA gyrase [1]) of 4.98.

Compound `COC(=O)c1ccc(CNC(=O)[C@H](Cc2ccc(O)cc2)NC(=O)c2cc(Br)c(Br)[nH]2)cc1` has a pIC50 (DNA gyrase [1]) of 6.01.

`COc1cc(/C=N/Nc2nc(-c3ccc([N+](=O)[O-])cc3)cs2)ccc1Oc1ccnc2cc(Cl)ccc12` was tested, and the MIC [6] was 3.12 µM (≈ 1.66 µg/mL).

In the case of `CCn1cc(-c2nnc(Nc3ccc(OC)cc3)o2)c(=O)c2cc(Br)c(C)nc21`, the MIC (Staphylococcus aureus [22]) was 5.7 µg/mL (≈ 12.5 µM), the MIC (Bacillus cereus) was 5.7 µg/mL (≈ 12.5 µM) and the MIC [23] was 5.7 µg/mL (≈ 12.5 µM). The MIC (Pseudomonas aeruginosa [24]) was 5.7 µg/mL (≈ 12.5 µM), the pIC50 (DNA gyrase [1]) was 5.07 and the MIC (Klebsiella pneumoniae [25]) was 5.7 µg/mL (≈ 12.5 µM). The MIC (Escherichia coli [26]) was 5.7 µg/mL (≈ 12.5 µM).
